pIC50: −log10 of the molar value. ≈ marks a conversion by molar mass, not a printed value. Where a name gives a salt, the structure may show the parent alone. Read-outs that look alike come from different tables or passages of the source.
Experiments:
[1] = target: Rabbit Reticulocyte Lysate (eukaryotic protein synthesis); experiment: Rabbit Reticulocyte Lysate: inhibition of eukaryotic protein synthesis (luciferase); format: biochemical; conditions: 30° C. for 90 minutes, read-out: retic. IC50
Description: Inhibition of eukaryotic protein synthesis was determined using the Rabbit Reticulocyte Lysate System, Nuclease-Treated from Promega (catalog #L-4960) with slight modifications to the manufacturer’s protocol. Compounds were serial diluted in 0.5 mL microcentrifuge tubes by mixing and transferring 50 µL from the highest concentration to 50 µL of water, mixing and transferring 50 µL of this 2-fold dilution to 50 µL of water. This mixing and transferring was repeated so that there are a total of 8 tubes with serial dilutions of compound at 10× the desired screening concentration that are ultimately diluted to 1× by the addition of rabbit reticulocyte luciferase synthesis mixture. Serial dilutions of compounds were added (2.5 µL) to wells in a black round bottom 96-well plate. Water (2.5 µL) was used as a “no inhibitor” control in 4 wells/plate. No RNA control reaction mixture (2 µL; see below) was used as a control in 4 wells/plate for background luminescence. Rabbit reticulocyte luciferase synthesis mixture (22.5 µL; see below) was added to wells with compounds or water mixture and incubated at 30° C. for 90 minutes. Luciferase assay reagent (25 µL) was added with luminescence measured using a BioTek Synergy HTX plate reader. % Inhibition was determined relative to no inhibitor controls.
Rabbit reticulocyte luciferase synthesis mixture: • 1,000 µL rabbit reticulocyte lysate • 5.7 µL Luciferase Control RNA (1 µg/ µL) • 26 µL complete amino acid mixture • 395 µL water
No RNA Control • 70 µL rabbit reticulocyte lysate • 2 µL complete amino acid mixture • 28 µL water

[2] = test system: E.coli S30 extract (bacterial protein synthesis); experiment: E.coli S30 extract: inhibition of bacterial protein synthesis (luciferase); format: biochemical; conditions: 37° C. for 1 hour
Description: E.coli S30 extract: Inhibition of bacterial protein synthesis was determined using the E.coli S30 Extract System for Circular DNA (Promega catalog #L-2010) and Luciferase Assay Reagent (Promega catalog #E1500) with slight modifications to a published protocol. Fyfe, C., Sutcliffe, J.A. and Grossman, T.H. (2012) “Development and characterization of a Pseudomonas aeruginosa in vitro coupled transcription-translation assay system for evaluation of translation inhibitors” J. Microbiol. Methods 90(3), 256-261.
Compounds were serial diluted in 0.5 mL microcentrifuge tubes by mixing and transferring 50 µL from the highest concentration to 50 µL of water, mixing and transferring 50 µL of this 2-fold dilution to 50 µL of water. This mixing and transferring was repeated so that there are a total of 8 tubes with serial dilutions of compound at 10× the desired screening concentration that are ultimately diluted to 1× by the addition of S30 luciferase synthesis mixture. Serial dilutions of compounds were added (2 µL) to wells in a black round bottom 96-well plate. Water (2 µL) was used as a “no inhibitor” control in 4 wells/plate. No DNA control reaction mixture (20 µL; see below) was used as a control in 4 wells/plate for background luminescence. S30 luciferase synthesis mixture (18 µL; see below) was added to wells with compounds or water mixture and incubated at 37° C. for 1 hour. Reactions were stopped by transferring to 4° C. refrigerator for 5 minutes then 25 µL of luciferase activity mix was added. Luminescence was measured using a BioTek Synergy HTX plate reader. % Inhibition was determined relative to no inhibitor controls.
S30 luciferase synthesis mixture: • 445 µL S30 extract, circular • 712 µL S30 Premix without amino acids • 4.45 µL pBESTluc™ DNA (1 µg/ µL) • 78 µL complete amino acid mixture • 267 µL water
No DNA control: • 20 µL S30 extract, circular • 32 µL S30 Premix without amino acids • 7 µL complete amino acid mixture • 21 µL water

[3] = test system: P.aeruginosa (Pa); experiment: Broth microdilution MIC against P.aeruginosa (Pa); format: cell-based; conditions: Pseudomonas aeruginosa
Description: (§1) A certified BSL-2 laboratory was used for testing. Compounds were evaluated using the broth microdilution minimum inhibitory concentration (MIC) and minimum bactericidal concentration (MBC) assays defined by Clinical and Laboratory Standards Institute (CLSI) in the M26-A guideline against S.aureus (Sa), E.coli (Ec), K.pneumoniae (Kp), A.baumannii (Ab), E.faecalis (Ef) and P.aeruginosa (Pa).
(§2) MICs were determined using the Clinical Laboratory and Standards Institute (CLSI) Broth Microdilution Method with slight modification. Clinical and Laboratory Standards Institute (2012). “Methods for dilution antimicrobial susceptibility tests for bacteria that grow aerobically; approved standard, 9th ed. M07-A9. Clinical and Laboratory Standards Institute, Wayne, PA.” Serial two-fold dilutions of compounds are prepared in sterile clear roundbottom 96-well plates.
(§3) To prepare microdilution trays, two-fold dilutions of antimicrobial agent are prepared in growth medium: Cation-Adjusted Mueller-Hinton Broth (CAMHB), or CAMHB supplemented with sodium bicarbonate (6.25 or 25 mM final concentration prepared from a 1.0 M stock solution) or CAMHB supplemented with heat inactivated human serum (Fisher Cat. # BP2657100) 0-50% by adding 200 µL of the highest concentration to be tested (64 µg/mL, for example) in row A, mixing and transferring 100 µL from row A to 100 µL growth medium in row B, then repeating the mixing and transferring through row H of the 96-well plate, discarding the excess 100 µL remaining. This slight modification to the CLSI protocol enables evaluation of MICs for 3 compounds per plate in triplicate, albeit with only 8 compound dilutions (CLSI protocol enables 2 compounds in triplicate with 10 dilutions). Bacterial suspensions are added to a final concentration of 5 × 10^4 CFU/well by adding 5 µL of a 1:10 dilution of a 0.5 McFarland suspension (1 × 10^8 CFU/mL) for each bacterium evaluated. Bacterial suspensions were prepared using the growth method described by CLSI. Well-isolated colonies (3-5 from an agar plate) were selected using a sterile loop and used to inoculate a tube containing 4 mL of CAMHB. The cultures are incubated at 35 ± 2° C. until it achieves or exceeds the turbidity of the 0.5 McFarland standard, determined by measuring A600nm (usually two to six hours). When growth exceeds a 0.5 McFarland standard, the turbidity is adjusted with broth to be equivalent to a 0.5 McFarland standard.

[4] = test system: A.baumannii (Ab); experiment: Broth microdilution MIC against A.baumannii (Ab); format: cell-based; conditions: Acinetobacter baumannii
Description: as §1, §2, §3

[5] = test system: E.faecalis (Ef); experiment: Broth microdilution MIC against E.faecalis (Ef); format: cell-based; conditions: Enterococcus faecalis
Description: as §1, §2, §3

[6] = test system: E.coli (Ec); experiment: Broth microdilution MIC against E.coli (Ec); format: cell-based; conditions: Escherichia coli
Description: as §1, §2, §3

[7] = test system: S.aureus (Sa); experiment: Broth microdilution MIC against S.aureus (Sa); format: cell-based; conditions: Staphylococcus aureus
Description: as §1, §2, §3

[8] = CAMHB supplemented with sodium bicarbonate 25 mM, read-out: Pa +bicarb 25 (MIC)
[9] = read-out: Ab +bicarb 6.25 (MIC)
[10] = read-out: Ef +bicarb 6.25 (MIC)
[11] = read-out: E. coli + bicarb 6.25 (MIC)
[12] = read-out: Pa +bicarb 6.25 (MIC)
[13] = read-out: Sa + bicarb 6.25 (MIC)

CC(C)(N)C(=O)N1CCN(C(=O)Nc2ccn(-c3ccc4c(c3)CCC(N3C[C@@H]5[C@@H](CN)[C@@H]5C3)C4)c(=O)n2)CC1 (some centres unmarked) [Compound 3]
pIC50 [1]: ≤ 6.00
pIC50 [2]: > 6.30

CC(C)(N)C(=O)N1CCN(C(=O)Nc2ccn(-c3ccc4c(c3)CCC(N3CC[C@@H](CN)C3)C4)c(=O)n2)CC1 (some centres unmarked) [Compound 4]
pIC50 [1]: ≤ 6.00
pIC50 [2]: > 6.30
MIC [3, 8]: 8 to 32 µg/mL (≈ 14.9 to 59.6 µM)

CC(C)(N)C(=O)N1CCN(C(=O)Nc2ccn(-c3ccc4c(c3)CCC(N3CC[C@H](CN)C3)C4)c(=O)n2)CC1 (some centres unmarked) [Compound 5]
pIC50 [1]: ≤ 6.00
pIC50 [2]: > 6.30

CC(C)(N)C(=O)N1CCN(C(=O)Nc2ccn(-c3ccc4c(c3)CCC(N[C@H]3CC[C@@H](N)CC3)C4)c(=O)n2)CC1 (some centres unmarked) [Compound 6]
MIC ([4]; CAMHB supplemented with sodium bicarbonate 25 mM, read-out: Ab +bicarb 25 (MIC)): > 32 µg/mL
pIC50 [1]: ≤ 6.00
pIC50 [2]: > 6.30
MIC ([5]; CAMHB supplemented with sodium bicarbonate 25 mM, read-out: Ef +bicarb 25 (MIC)): < 8 µg/mL
MIC ([6]; CAMHB supplemented with sodium bicarbonate 25 mM, read-out: E.coli + bicarb 25 (MIC)): < 8 µg/mL
MIC [3, 8]: > 32 µg/mL
MIC ([7]; CAMHB supplemented with sodium bicarbonate 25 mM, read-out: Sa + bicarb 25 (MIC)): < 8 µg/mL

C[C@](N)(CO)C(=O)N1CCN(C(=O)Nc2ccn(-c3ccc4c(c3)CCC(N[C@H]3CC[C@H](N)C3)C4)c(=O)n2)CC1 (some centres unmarked) [Compound 24, Hydrochloride Salt]
MIC [4, 9]: > 32 µg/mL
MIC [5, 10]: > 32 µg/mL
MIC [6, 11]: < 8 µg/mL
MIC [3, 12]: > 32 µg/mL
MIC [7, 13]: > 32 µg/mL

CC(C)(N)C(=O)N1CCN(C(=O)Nc2ccn(-c3ccc4c(c3)CCC(N[C@H]3C[C@H](CN)C3)C4)c(=O)n2)CC1 (some centres unmarked) [Compound 41, Hydrochloride Salt]
MIC [4, 9]: > 32 µg/mL
MIC [5, 10]: > 32 µg/mL
MIC [6, 11]: < 8 µg/mL
MIC [3, 12]: > 32 µg/mL
MIC [7, 13]: 8 to 32 µg/mL

CC(C)(N)C(=O)N1CCN(C(=O)Nc2ccn(-c3ccc4c(c3)CCC(N[C@H]3C[C@@H](CN)C3)C4)c(=O)n2)CC1 (some centres unmarked) [Compound 44, Hydrochloride Salt]
MIC [4, 9]: > 32 µg/mL
MIC [5, 10]: > 32 µg/mL
MIC [6, 11]: 8 to 32 µg/mL
MIC [3, 12]: > 32 µg/mL
MIC [7, 13]: > 32 µg/mL

From patent US20230278987A1, “Antimicrobial Compounds and Methods” (Curza Global, LLC, priority 2019, published 2023)
